Values of other authors as cited in US20060147533A1, “Antimicrobial biomaterial for blood bags” (priority 2004, published 2006).

Settings: humans; recoveries reported following ingestion of higher doses

For O=[N+]([O-])[O-].[Ag+] [silver nitrate], the estimated fatal dose is given as 10 grams.
